Data set [1] deals with Influenza A/WSN/33 (H1N1). Put plainly: microbe, parasite or virus in culture. The class given is cell-based, Influenza A virus. Conditions: for EC50: read-out: H1N1 WSN EC50.
Data set [2] concerns influenza virus (H1N1). Put plainly: organism not typed. Type of data set: cell-based, Influenza A virus.
The subject of data set [3] is influenza virus (H3N2). As to the kind of experiment: organism not typed. Type of data set: cell-based, Influenza A virus. Conditions: for EC50: read-out: H3N2 EC50.
In data set [4] the test system is MDCK cells.
Data set [5] has as its system H1N1 WSN viral strain. More on the design: species or system BALB/c mice. As to conditions: mouse, in vivo, po.

Each structure is given as a SMILES string. Converted amounts (≈) assume the structure as drawn. Where a name gives a salt, the structure may show the parent alone. Read-outs that look alike come from different tables or passages of the source.

Usually EC50 stands for the concentration giving half of the maximal effect.

Regarding `COc1c(C)c2c(c(O)c1C/C=C(\C)CCC(=O)OCCN1CCOCC1)C(=O)OC2` [MPM, 2-morpholinoethyl(E)-6-(1,3-dihydro-4-hydroxy-6-methoxy-7-methyl-3-oxo-5-isobenzofuranyl)-4-methyl-4-hexenoate], the “antiviral activity against WSN influenza virus” value in data set [1] is recorded as “active”. Moreover, the “cell survival (MTT), D + V” value in data set [1] was “++++ (key: 0˜25% cell survival is recorded as +/−; 25˜50% cell survival is recorded as +; 50˜75% cell survival is recorded as ++; 75˜100% cell survival is recorded as +++; >100% cell survival is recorded as ++++)”. In addition, the EC50 in data set [1] (Influenza A virus) came out at 0.098 µg/mL (≈ 0.226 µM); in data set [3] it was 1.56 µg/mL (≈ 3.6 µM). Besides, the MIC in data set [1] (Influenza A virus, read-out: Minimal Inhibitory Concentration (MIC), WSN) is 0.097 µg/mL (≈ 0.224 µM); in data set [2] (read-out: Minimal Inhibitory Concentration (MIC), H1N1), 0.195 µg/mL (≈ 0.45 µM); in data set [3] (read-out: Minimal Inhibitory Concentration (MIC), H3N2), 1.56 µg/mL (≈ 3.6 µM). Besides, the “survival rate in MDCK cells” value in data set [2] turned out to be 75%. The toxicity to cells entry in data set [4] is on record as “nontoxic to cells”.

As to `COc1c(C)c2c(c(O)c1C/C=C(\C)CCC(=O)OCCN1CCOCC1)C(=O)OC2` [MPM-N, mycophenolate mofetil hydrochloride], the “Minimal Inhibitory Concentration (MIC), WSN” value in data set [1] (hydrochloride) is 0.0488 µg/mL. In addition, in data set [5], the “survival rate of mice” value turned out to be 23.3%.

For `NC(=O)c1ncn([C@@H]2O[C@H](CO)[C@@H](O)[C@H]2O)n1` [Ribavirin, reference compound], the EC50 is 3.12 µg/mL (≈ 12.8 µM) in data set [1] (Influenza A virus) and 12.5 µg/mL (≈ 51.2 µM) in data set [3].

Take `CCOC(=O)C1=C[C@@H](OC(CC)CC)[C@H](NC(C)=O)[C@@H](N)C1` [Tamiflu]: the “survival rate of mice” value is given as 100% in data set [5] and 46.7% in data set [5] (0.1 mg/kg).

These data come from patent publication US10221152B2 (priority 2013, dated 2019).
